What was measured:
[1] = test system: fMLP-stimulated RAW 264.7 macrophages; test: O2^- scavenging in cultures of fMLP-stimulated macrophages, Fe(II)cytC oxidation; format: cell-based
Excerpt: The chemotactic peptide fMLP triggers a specific inflammatory activation of the macrophages, which produce high levels of O2^-, that are measurable spectrophotometrically by means of the oxidation of the Fe(II)cytC chromogen.

O2^- = O2^- scavenging in a cell-free system (xanthine/xanthine oxidase), NBT oxidation; format: biochemical; conditions: compound at 10^-5 M; baseline 294±12 sec.; p<0.01
Excerpt: (§1) In vitro, the xanthine oxidase enzyme metabolises the xanthine substrate and generates uric acid and O2 as products of the reaction, which can be measured spectrophotometrically by oxidation of the NBT chromogen.

xanthine oxidase enzyme = test: Uric acid levels in the xanthine/xanthine oxidase system (check for enzyme inhibition); format: biochemical
xanthine oxidase enzyme, sequence (P47989 whole entry, species assumed): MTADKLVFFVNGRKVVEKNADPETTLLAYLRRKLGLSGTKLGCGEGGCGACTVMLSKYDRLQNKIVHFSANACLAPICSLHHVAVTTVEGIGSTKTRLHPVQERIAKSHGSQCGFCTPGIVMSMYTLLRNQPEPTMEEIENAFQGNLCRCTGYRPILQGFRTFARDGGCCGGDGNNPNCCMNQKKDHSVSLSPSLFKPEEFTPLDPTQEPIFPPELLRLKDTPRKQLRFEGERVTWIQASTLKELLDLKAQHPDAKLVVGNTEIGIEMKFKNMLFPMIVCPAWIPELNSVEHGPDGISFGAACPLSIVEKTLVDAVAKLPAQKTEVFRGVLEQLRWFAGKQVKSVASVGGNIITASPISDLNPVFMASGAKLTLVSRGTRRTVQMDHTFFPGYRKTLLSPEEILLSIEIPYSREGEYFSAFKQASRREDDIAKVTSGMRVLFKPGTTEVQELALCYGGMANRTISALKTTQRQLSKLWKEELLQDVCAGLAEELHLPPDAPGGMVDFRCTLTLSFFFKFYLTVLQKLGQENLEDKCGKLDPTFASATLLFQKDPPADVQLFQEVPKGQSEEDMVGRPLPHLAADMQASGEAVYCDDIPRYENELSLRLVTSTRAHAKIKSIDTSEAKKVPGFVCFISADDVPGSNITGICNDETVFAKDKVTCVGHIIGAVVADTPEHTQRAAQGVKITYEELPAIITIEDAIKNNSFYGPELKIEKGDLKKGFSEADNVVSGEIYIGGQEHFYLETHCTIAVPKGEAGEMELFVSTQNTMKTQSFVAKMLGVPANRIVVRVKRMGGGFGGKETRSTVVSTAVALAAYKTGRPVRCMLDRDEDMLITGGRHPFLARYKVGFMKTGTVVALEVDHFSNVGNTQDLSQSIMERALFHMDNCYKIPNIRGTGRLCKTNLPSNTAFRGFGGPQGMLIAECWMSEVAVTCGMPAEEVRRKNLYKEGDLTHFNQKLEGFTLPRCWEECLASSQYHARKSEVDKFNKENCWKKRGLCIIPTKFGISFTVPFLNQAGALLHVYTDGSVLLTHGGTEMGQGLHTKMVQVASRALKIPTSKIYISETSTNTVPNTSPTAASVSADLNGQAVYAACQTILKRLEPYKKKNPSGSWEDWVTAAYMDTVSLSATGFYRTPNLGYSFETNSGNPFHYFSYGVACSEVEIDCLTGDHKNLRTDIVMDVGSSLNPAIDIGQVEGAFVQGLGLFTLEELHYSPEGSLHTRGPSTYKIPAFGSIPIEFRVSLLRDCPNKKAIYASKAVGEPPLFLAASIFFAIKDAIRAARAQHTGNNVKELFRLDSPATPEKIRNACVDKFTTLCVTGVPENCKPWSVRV
Excerpt: as §1

RAW 264.7 macrophages = test: Toxicity: viability of macrophage cultures; format: cell-based
Method: The viability of the cultures of RAW 264.7 macrophages was measured at various intervals (24, 48, 72 h) after adding increasing concentrations of the compound of Example 2 (10^-7 M- 10^-4 M).

[2] = test system: rat aorta smooth muscle cells (RASM); test: Protection from oxidative stress: MDA levels, O2^- generated by xanthine oxidase/xanthine; format: cell-based; conditions: xanthine oxidase/xanthine system; comparable with, or even greater than SOD
Method: (§2) The primary targets of the cytotoxic action of ROS are the membrane lipids, which are peroxidised with the formation of malondialdehyde (MDA). This can be measured spectrophotometrically using the chromogen that is generated from the reaction of MDA with thiobarbituric acid. This measurement is consequently a reliable indicator of ROS-induced cell damage.
(§3) Cultures of rat aorta smooth muscle cells (RASM) were prepared in a medium in which O2^- was generated both by means of the xanthine oxidase/xanthine enzymatic system and by RAW 264.7 macrophages stimulation with fMLP (see the two diagrams shown below, respectively).

[3] = test system: rat aorta smooth muscle cells (RASM); test: Protection from oxidative stress: MDA levels, O2^- generated by fMLP-stimulated RAW 264.7 macrophages; format: cell-based; conditions: RAW 264.7 macrophages stimulated with fMLP; comparable with, or even greater than SOD
Method: as §2, §3

| levels of uric acid (xanthine oxidase enzyme) | IC50 ([1]; reduction of O2^- generated by fMLP-activated macrophages, read-out: 50% inhibiting concentration (IC50%)) | Substance | effectiveness in reducing O2^- levels generated by fMLP-activated macrophages ([1]; Figure 2) | time taken to oxidise 50% of the NBT (O2^-) | levels of oxidised Fe(II)cytC ([1]; 10^-9-10^-6 M) | activity when pre-incubated and then removed from the cell cultures before adding the activating stimulus ([1]; pre-incubation, removal before fMLP) | cytotoxicity (viability of the cultures) (RAW 264.7 macrophages; 10^-7 M-10^-4 M, 24, 48, 72 h, effect only after 72 hours and at 10^-5-10^-4 M) | cell toxicity at active concentrations (RAW 264.7 macrophages; concentrations of the order of 0.1 milligrams/litre) | levels of MDA in the RASM cells [2] | levels of MDA in the RASM cells [3] |
| --- | --- | --- | --- | --- | --- | --- | --- | --- | --- | --- |
| – | – | MnSO4 [reference compound] | entirely ineffective | – | – | – | – | – | – | – |
| does not reduce the levels of uric acid | 60 nM | Mn(4,10-dimethyl-1,4,7,10-tetraazacyclododecane-1,7-diacetate) 2H2O) [Example 2] | – | 390 ± 16 s | dose-dependent, significant reduction | remains active | mildly cytotoxic only after incubation times of 72 hours and at the greatest concentrations | no cell toxicity | significantly reduced | significantly reduced |
